Data: the supplement of paper PMC10307832

Key:
Assay in all cases: relative viability (nuclei count vs DMSO), 5 days (fraction); higher = more cells survive
[1] = test system: EBC-1
Procedure, shortened: (§1)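 After 5 days of treatment, lung cancer cells in 1536-well plates were fixed and stained in a single step (final 0.05% Triton X-100, 1% formaldehyde, 1 ug/ml Hoechst) and their nuclei counted on 4× images. Treatment had been applied by pin tool the day after seeding as one drug alone or as a fixed anchor-drug dose with five library-drug doses (not always all listed) in √10 steps. Relative viability is the nuclei count of treated wells divided by that of vehicle wells, and values are medians of duplicate plates.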

[2] = test system: A549
Procedure, shortened: as §1

[3] = test system: Calu-6
Procedure, shortened: as §1

[4] = test system: NCI-H1299
Procedure, shortened: as §1

[5] = test system: NCI-H1703
Procedure, shortened: as §1

[6] = test system: IA-LM
Procedure, shortened: as §1

[7] = test system: NCI-H1563
Procedure, shortened: as §1

Row | Structure (SMILES) | relative viability ([1]; first compound 0.08 µM) | relative viability ([1]; first compound 0.253 µM) | relative viability ([1]; first compound 0.8 µM) | relative viability ([1]; first compound 2.53 µM) | relative viability ([2]; first compound 0.08 µM) | relative viability ([2]; first compound 0.253 µM) | relative viability ([2]; first compound 0.8 µM) | relative viability ([2]; first compound 2.53 µM) | relative viability ([3]; first compound 0.08 µM) | relative viability ([3]; first compound 0.253 µM) | relative viability ([3]; first compound 0.8 µM) | relative viability ([3]; first compound 2.53 µM) | relative viability ([4]; first compound 0.08 µM) | relative viability ([4]; first compound 0.253 µM) | relative viability ([4]; first compound 0.8 µM) | relative viability ([4]; first compound 2.53 µM) | relative viability ([5]; first compound 0.08 µM) | relative viability ([5]; first compound 0.253 µM) | relative viability ([5]; first compound 0.8 µM) | relative viability ([5]; first compound 2.53 µM) | relative viability ([6]; first compound 0.08 µM) | relative viability ([6]; first compound 0.253 µM) | relative viability ([6]; first compound 0.8 µM) | relative viability ([6]; first compound 2.53 µM) | relative viability ([7]; first compound 0.08 µM) | relative viability ([7]; first compound 0.253 µM) | relative viability ([7]; first compound 0.8 µM) | relative viability ([7]; first compound 2.53 µM)
1 | Cc1cnc(-c2cnc(NCCNc3ccc(C#N)cn3)nc2-c2ccc(Cl)cc2Cl)[nH]1 + CC1(C)CCC(c2ccc(Cl)cc2)=C(CN2CCN(c3ccc(C(=O)NS(=O)(=O)c4ccc(N[C@H](CCN5CCOCC5)CSc5ccccc5)c(S(=O)(=O)C(F)(F)F)c4)cc3)CC2)C1 [Navitoclax] (partner 0.5 µM) | 0.399 | 0.351 | 0.542 | 0.23 | 1.23 | 1.18 | 1.21 | 1.18 | 0.826 | 0.773 | 0.789 | 0.717 | 1.04 | 1.02 | 1.09 | 1.04 | 1.15 | 1.03 | 1.2 | 1.08 | 0.78 | 0.71 | 0.809 | 0.695 |  |  |  | 
2 | Cc1cnc(-c2cnc(NCCNc3ccc(C#N)cn3)nc2-c2ccc(Cl)cc2Cl)[nH]1 + CC(C)C[C@H](NC(=O)[C@H](Cc1ccccc1)NC(=O)c1cnccn1)B(O)O [Bortezomib] (partner 0.002 µM) | 0.607 |  | 0.546 | 0.509 |  |  |  |  | 0.933 | 0.996 | 1.06 | 1.03 | 1.05 | 1 | 1.02 | 0.969 | 0.337 | 0.352 | 0.5 | 0.699 | 0.849 | 0.855 | 1.06 | 0.891 | 0.831 | 0.944 | 0.827 | 0.914
3 | Cc1cnc(-c2cnc(NCCNc3ccc(C#N)cn3)nc2-c2ccc(Cl)cc2Cl)[nH]1 + CS(=O)(=O)CCNCc1ccc(-c2ccc3ncnc(Nc4ccc(OCc5cccc(F)c5)c(Cl)c4)c3c2)o1 [Lapatinib] (partner 2 µM) | 0.253 | 0.201 | 0.215 | 0.248 | 0.96 | 0.942 | 1.16 | 1.14 | 1.14 | 0.991 | 1 | 1.03 | 0.954 | 0.983 | 0.948 | 0.862 | 1.12 | 1.02 | 1.2 | 1.28 | 0.985 | 0.864 | 0.679 | 0.685 | 1.06 | 0.997 | 0.963 | 1.01
4 | Cc1cnc(-c2cnc(NCCNc3ccc(C#N)cn3)nc2-c2ccc(Cl)cc2Cl)[nH]1 + CS(=O)(=O)N1CCN(Cc2cc3nc(-c4cccc5[nH]ncc45)nc(N4CCOCC4)c3s2)CC1 [Pictilisib] (partner 1 µM) | 0.421 | 0.368 | 0.549 | 0.567 | 0.597 | 0.482 | 0.764 | 0.775 | 0.923 | 0.934 | 1.05 | 0.911 | 0.822 | 0.754 | 0.861 | 0.426 | 0.256 | 0.252 | 0.23 | 0.314 | 0.362 | 0.408 |  | 0.483 | 0.649 | 0.72 | 0.709 | 0.725
